# Data taken from US5840747A, “Calcium channel antagonists” (Eli Lilly and Company, priority 1995, dated 1998).
# “Also recorded” adds a separate entry of the source.
# What was measured:
# Type in all cases: cell-based
# rat aorta [1] = experiment: Contractile responses of rat aortic rings to norepinephrine, serotonin and U46619 (isolated organ bath); settings: for inhibitory effect on contractile responses to norepinephrine, serotonin, and U46619: summary in discussion; for dependence of the inhibition of contractile responses on the endothelium: rat aortic rings with versus without intact endothelium
# Description: Male Wistar rats (250-350 g; Charles River Laboratories, Portage, Mich.) were sacrificed by cervical dislocation. The aorta was removed and cleaned of extraneous tissue and cut into ring segments, each approximately 4-5 mm long. In some tissues, endothelium was removed by rotating the ring segment around the tip of a forceps 10 times. Lack of tissue relaxation to acetylcholine (10^-6 M) after contraction with norepinephrine (10^-7 M) was used as evidence for denuded endothelium. […] Tissues were placed under an optimal force of 4 grams and equilibrated for one hour with washes every 15 minutes. […] All tissues were initially challenged with KCl (67 mM) to establish viability. Concentration-response curves were generated in a cumulative fashion and are reported as a percentage of an initial KCl contraction (67 mM) produced in each tissue. Vehicle, β-estradiol, 14 or 16 were added to the tissues 60 minutes prior to initiating the concentration-response curves to agonists. […] Only one agonist concentration-response curve was generated in each tissue. All results are expressed as mean±SE where n represents the number of rings examined.
# [2] = target: T1, calcium channels in vascular tissue (Rattus norvegicus, UniProt P22002); experiment: Contractile response of rat aorta to the calcium agonist BayK 8644; settings: for inhibition of the contraction to BayK 8644: absence of an intact endothelium, 10 mM KCl prior to BayK 8644 (FIGS. 7 and 8)
# T1 construct: BayK 8644-induced contraction
# Description: (§1) Male Wistar rats (250-350 g; Charles River Laboratories, Portage, Mich.) were sacrificed by cervical dislocation. The aorta was removed and cleaned of extraneous tissue and cut into ring segments, each approximately 4-5 mm long. In some tissues, endothelium was removed by rotating the ring segment around the tip of a forceps 10 times. Lack of tissue relaxation to acetylcholine (10^-6 M) after contraction with norepinephrine (10^-7 M) was used as evidence for denuded endothelium. Tissues with an intact endothelium relaxed to acetylcholine with 88.5±1.6% (n-11) relaxation.
# Ring segments were placed between two stainless steel hooks and mounted in isolated organ baths containing 10 ml of modified Krebs' bicarbonate buffer of the following composition (mM): NaCl, 118.2; KCl, 4.6' CaCl2.2H2 O, 1.6; KH2 PO4, 1.2; MgSO4, 1.2; glucose, 10; and NaHCO3, 24.8. Organ bath solutions were aerated with 95% O2 /5% CO2 and maintained at 37° C. Tissues were placed under an optimal force of 4 grams and equilibrated for one hour with washes every 15 minutes. Changes in force were recorded and analyzed by a Biopac MP100 (World Precision Instruments, Sarasota, Fla.) data acquisition system via Sensotec (model MBL 5514-02) transducers (Sensotec Inc. Columbus, Ohio).
# All tissues were initially challenged with KCl (67 mM) to establish viability. Concentration-response curves were generated in a cumulative fashion and are reported as a percentage of an initial KCl contraction (67 mM) produced in each tissue. Vehicle, β-estradiol, 14 or 16 were added to the tissues 60 minutes prior to initiating the concentration-response curves to agonists. In studies with BayK 8644, tissues were exposed to 10 mM KCl prior to initiating the concentration-response curves for BayK 8644. Only one agonist concentration-response curve was generated in each tissue. All results are expressed as mean±SE where n represents the number of rings examined. […]
# rat aorta [3] = experiment: Endothelium integrity: relaxation to acetylcholine after contraction with norepinephrine; settings: acetylcholine 10^-6 M after contraction with norepinephrine 10^-7 M, tissues with intact endothelium, n-11
# Description: as §1
# [4] = 10^-6 and 10^-5 M, rat aorta with and without intact endothelium, added 60 minutes prior to agonist
# T1 sequence (P22002 whole entry): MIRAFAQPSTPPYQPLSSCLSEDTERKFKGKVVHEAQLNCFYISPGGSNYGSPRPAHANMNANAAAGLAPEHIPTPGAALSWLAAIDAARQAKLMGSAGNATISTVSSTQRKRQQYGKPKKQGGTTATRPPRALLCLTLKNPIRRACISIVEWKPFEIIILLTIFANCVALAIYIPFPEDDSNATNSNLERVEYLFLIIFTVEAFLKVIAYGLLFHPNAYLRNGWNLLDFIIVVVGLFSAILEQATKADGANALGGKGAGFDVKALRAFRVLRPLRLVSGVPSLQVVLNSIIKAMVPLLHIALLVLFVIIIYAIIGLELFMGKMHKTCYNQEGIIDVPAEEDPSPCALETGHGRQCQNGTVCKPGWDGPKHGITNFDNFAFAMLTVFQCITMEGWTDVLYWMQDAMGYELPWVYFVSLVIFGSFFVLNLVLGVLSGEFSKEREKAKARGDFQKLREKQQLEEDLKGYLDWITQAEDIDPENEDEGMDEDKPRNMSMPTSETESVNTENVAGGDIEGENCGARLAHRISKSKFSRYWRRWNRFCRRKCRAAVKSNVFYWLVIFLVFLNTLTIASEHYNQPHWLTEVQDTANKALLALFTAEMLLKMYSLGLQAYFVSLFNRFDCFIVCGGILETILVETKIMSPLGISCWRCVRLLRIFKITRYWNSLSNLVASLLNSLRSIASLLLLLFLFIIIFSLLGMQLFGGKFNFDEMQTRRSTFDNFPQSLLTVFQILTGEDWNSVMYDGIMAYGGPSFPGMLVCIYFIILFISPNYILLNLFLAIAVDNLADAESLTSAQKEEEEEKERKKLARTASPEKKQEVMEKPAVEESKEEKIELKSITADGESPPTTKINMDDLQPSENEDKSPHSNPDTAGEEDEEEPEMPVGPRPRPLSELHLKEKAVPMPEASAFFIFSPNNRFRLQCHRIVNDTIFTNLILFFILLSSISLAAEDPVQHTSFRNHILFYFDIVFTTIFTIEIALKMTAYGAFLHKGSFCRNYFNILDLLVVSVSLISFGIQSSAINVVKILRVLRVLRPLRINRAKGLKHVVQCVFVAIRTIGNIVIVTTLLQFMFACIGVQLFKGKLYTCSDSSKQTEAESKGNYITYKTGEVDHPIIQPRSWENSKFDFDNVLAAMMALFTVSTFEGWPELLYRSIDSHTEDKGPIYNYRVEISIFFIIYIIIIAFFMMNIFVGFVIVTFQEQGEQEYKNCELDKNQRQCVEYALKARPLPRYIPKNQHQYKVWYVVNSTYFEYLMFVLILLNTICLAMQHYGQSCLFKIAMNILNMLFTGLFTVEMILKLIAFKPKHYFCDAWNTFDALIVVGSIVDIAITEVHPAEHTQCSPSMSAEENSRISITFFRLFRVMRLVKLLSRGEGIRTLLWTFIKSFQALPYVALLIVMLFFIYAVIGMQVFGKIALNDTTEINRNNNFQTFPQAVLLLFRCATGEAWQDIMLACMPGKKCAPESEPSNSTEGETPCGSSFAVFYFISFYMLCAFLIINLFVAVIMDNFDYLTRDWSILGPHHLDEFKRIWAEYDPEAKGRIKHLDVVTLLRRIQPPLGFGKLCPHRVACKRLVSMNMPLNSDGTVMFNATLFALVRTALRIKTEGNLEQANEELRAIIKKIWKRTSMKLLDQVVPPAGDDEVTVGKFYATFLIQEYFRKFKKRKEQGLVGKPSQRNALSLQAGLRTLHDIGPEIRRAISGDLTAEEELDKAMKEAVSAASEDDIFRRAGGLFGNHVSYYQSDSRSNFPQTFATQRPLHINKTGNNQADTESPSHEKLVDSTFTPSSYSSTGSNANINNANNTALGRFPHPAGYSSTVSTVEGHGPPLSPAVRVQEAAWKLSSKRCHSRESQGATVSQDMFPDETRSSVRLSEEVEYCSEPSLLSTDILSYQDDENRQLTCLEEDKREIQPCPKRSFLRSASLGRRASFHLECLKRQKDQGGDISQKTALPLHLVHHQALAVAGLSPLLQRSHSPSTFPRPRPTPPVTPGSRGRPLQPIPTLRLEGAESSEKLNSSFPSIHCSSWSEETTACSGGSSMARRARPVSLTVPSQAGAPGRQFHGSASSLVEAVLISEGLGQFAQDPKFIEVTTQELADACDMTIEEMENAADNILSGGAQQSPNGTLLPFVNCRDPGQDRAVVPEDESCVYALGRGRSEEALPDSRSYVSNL
smiles,measurement,setting,value
"O=C(c1ccc(OCCN2CCCC2)cc1)c1c(-c2ccc(O)cc2)sc2cc(O)ccc12 [Compound 16, 6-hydroxy-2-(4-hydroxyphenyl)-3-[4-(2-pyrrolidinoethoxy)benzoyl]benzo[b]thiophene]",inhibition of contractile response to U46619,rat aorta [1]; [4],potently inhibited
same,inhibition of contractile response to norepinephrine,rat aorta [1]; [4],potently inhibited
same,inhibition of contractile response to serotonin,rat aorta [1]; [4],potently inhibited
same,potency in inhibiting contraction to serotonin relative to norepinephrine or U46619,rat aorta [1]; rat aorta,more potent in inhibiting the contractile response to serotonin relative to norepinephrine or U46619
same,"inhibitory effect on contractile responses to norepinephrine, serotonin, and U46619",rat aorta [1]; rat aorta,marked inhibitory effect
same,dependence of the inhibition of contractile responses on the endothelium,rat aorta [1],appeared independent of the endothelium
same,inhibition of the contraction to BayK 8644,[2],inhibition of the contraction to BayK 8644 occurred
same,relative potency as calcium channel antagonist,[2]; comparison between substances,considerably more potent as a calcium channel antagonist than 14; also recorded: more potent calcium channel antagonist in vascular tissue than estrogen
"O=C(c1ccc(OCCN2CCCCC2)cc1)c1c(-c2ccc(O)cc2)sc2cc(O)ccc12 [Compound 14, 6-hydroxy-2-(4-hydroxyphenyl)-3-[4-(2-piperidinoethoxy)benzoyl]benzo[b]thiophene]",inhibition of contractile responses to serotonin,"rat aorta [1]; rat aorta with and without intact endothelium (FIG. 4), concentration not given",inhibited
same,inhibition of serotonin response compared with norepinephrine response,rat aorta [1]; rat aorta with and without intact endothelium (FIGS. 4 and 5),greater than with norepinephrine
same,"inhibitory effect on contractile responses to norepinephrine, serotonin, and U46619",rat aorta [1]; rat aorta,marked inhibitory effect
same,dependence of the inhibition of contractile responses on the endothelium,rat aorta [1],independent of an intact endothelium
same,inhibition of the contraction to BayK 8644,[2],inhibition of the contraction to BayK 8644 occurred
CC(=O)OCC[N+](C)(C)C [acetylcholine],percent relaxation to acetylcholine at 1 µM,rat aorta [3],88.5 ± 1.6%
